# Assay results: US20050038098A1, “Substituted dihydronaphthalene and isochroman compounds for the treatment of metabolic disorders, cancer and other diseases” (priority 2003, published 2005)
# Assays:
# [1] = system: carcinogen induced mammary tumors; assay: Carcinogen induced mammary tumors in Sprague Dawley rats; type: in vivo, rat; settings: combination treatment with tamoxifen (800 μg/kg) compared to tamoxifen alone
# Method: Procedure: Five week-old female Sprague Dawley rats (Harlan) were housed in a fixed 12-12-hr artificial light-dark cycle, and maintained on a standard rodent diet provided ad libitum. Animals were allowed two days to acclimate in this experimental environment prior to the initiation of the study.
# To induce mammary tumors, the female […] were injected intraperitoneally with the carcinogen n-nitroso-n-methylurea, in a single dose of 50 mg/kg in acidified normal saline (pH4 w/acetic acid) at a final volume of 10 mg/ml (5 ml/kg). After eight weeks, mammary tumors are detected, and the tumor bearing females are sorted into treatment groups. Once sorted, the animals were housed four per cage and provided rodent diet ad libitum. All animals are treated with test compound or a vehicle for four weeks, during which time, changes in tumor size are monitored. Tumors were classified as regressing, static or progressing.
# Treatment groups (n=8/group): • 1) Control (sesame oil) • 2) Tamoxifen (800 μg/kg) • 3) Compound 1 (10 mg/kg) • 4) Compound 1 (20 mg/kg) • 5) Compound 1 (50 mg/kg) • 6) Compound 1 (100 mg/kg) • 7) Compound 1 (20 mg/kg)+Tamox. (800 μg/kg) • 8) Compound 9 (75 mg/kg) • 9) Compound 11 (20 mg/kg) • 10) Compound 11 (20 mg/kg)+Tamox. (800 μg/kg) • 11) Compound 11 (50 mg/kg) […]
# [2] = system: THP-1 cells differentiated into macrophages (macrophage foam cells); assay: Cholesterol efflux assay from macrophage foam cells; type: cell-based; settings: 1 μM final concentration, 10 μg/ml ApoA-I, 24 hr, vs non treated cells
# Method: Cholesterol efflux from macrophage foam cells was assayed as described by Sparrow. et al, J. Biol. Chem., 2002, 277, 10021-10027, which is incorporated herein in its entirety by this reference. THP-1 cells obtained from ATCC (Manassas, VI), were cultured in RPMI medium (Sigma, St-Louis, Mo.), containing 10% fetal calf serum (Sigma, St-Louis, Mo.), […] 2-mercaptoethanol, 1 mM sodium pyruvate, 2 mM L-glutamine, 100 units/ml penicillin, […] streptomycin and 0.25 μg/ml amphotericin B obtained from Sigma (St-Louis, Mo.). The THP-1 cells were differentiated into macrophages in 24 well tissue culture dishes at a density of 0.5 million cells/well by incubation in the same medium plus 100 nM tetradecanoyl phorbol acetate (Sigma, St-Louis, Mo.), for 3 days.
# After differentiation into macrophages, the cells were tested for cholesterol efflux as induced by Compound 11 of the invention. Cells were labeled by incubation for 24 hr in fresh growth medium containing [3H]-cholesterol (10 μCi/ml) (PerkinElmer, Boston, Mass.), and 50 μg/ml acetylated-LDL (Frederick, Md.) and 1% Fetal bovine serum (Sigma, St-Louis, Mo.). […] Media were briefly centrifuged to remove non-adherent cells, and then aliquots of both the supernatant and the dissolved cells were counted by liquid scintillation spectrometry to determine radioactivity.
# 3T3-L1 pre-adipocytes = settings: comparative compound, stated as already shown; cited from earlier work
structure (smiles),measurement,setting,value
"Cc1cc2c(cc1-c1cc(/C=C3\SC(=O)NC3=O)ccc1OC(F)(F)F)C(C(C)C)=CCC2(C)C [Compound 1, 5[3-(8-Isopropyl-3,5,5-trimethyl-5,6-dihydro-naphthalen-2-yl)-4-trifluoromethoxy-benzylidene]-thiazolidine-2,4-dione]",effect on mammary tumors in combination with tamoxifen,[1],unexpectedly improved and/or synergistic effects
"COc1c(F)cc(/C=C2\SC(=O)NC2=O)c(F)c1-c1cc2c(cc1C)C(C)(C)OCC2(C)C [Compound 11, 5-[2,5-Difluoro-4-methoxy-3-(1,1,4,4,7-pentamethyl-isochroman-6-yl)-benzylidene]-thiazolidine-2,4-dione]",cholesterol efflux,[2],effective for inducing cholesterol efflux
same,cholesterol efflux,[2]; listed as compound 11,increases cholesterol efflux
"Cc1cc2c(cc1-c1cc(/C=C3\SC(=O)NC3=O)ccc1OC(F)(F)F)C(C)(C)CCC2(C)C [Compound 41, 5-[3-(3,5,5,8,8-Pentamethyl-5,6,7,8-tetrahydro-naphthalen-2-yl)-4-trifluoromethoxy-benzylidene]-thiazolidine-2,4-dione]",inducer of adipocyte differentiation,3T3-L1 pre-adipocytes,potent inducer of adipocyte differentiation
